From US5889029A, “Use of cotinine in treating psychiatric disorders” (priority 1997, dated 1999)

Key:
[1] = molecular target: T1, dopamine uptake site (Cavia porcellus, UniProt H0WCX4); test: Dopamine Reuptake Binding Assay; settings: 10^-6 M; Guinea pig striatal membranes; [3H]WIN,35,428 1.0 nM
T1 construct: Guinea pig striatal membranes; from tissue; host or cells: guinea pig striatal membranes

[2] = molecular target: T2, GABA uptake site (Rattus norvegicus, UniProt P23978); test: biochemical; settings: read-out: Receptor Binding Activity Percent Inhibition Average (N = 2)
T2 construct: Rat cortical membranes; from tissue; host or cells: rat cortical membranes

[3] = molecular target: T3, Dopamine (D1 Central) (Rattus norvegicus, UniProt P18901); test: Dopamine (D1 Central) Binding Assay; settings: 10^-6 M; Rat striatal membranes; [3H]SCH 23390 0.5 nM
T3 construct: Rat striatal membranes; from tissue; host or cells: rat striatal membranes

[4] = molecular target: T4, Histamine (H2) (Cavia porcellus, UniProt P47747); test: Histamine (H2) Binding Assay; set-up: species or system Guinea pig; settings: 10^-6 M; Guinea pig striatal membranes; [3H]Tiotidine 4.0 nM; read-out: Receptor Binding Activity Percent Inhibition Average (N = 2)
T4 construct: Guinea pig striatal membranes; from tissue; host or cells: guinea pig striatal membranes

[5] = molecular target: T5, Histamine (H3) (Rattus norvegicus, UniProt Q9QYN8); test: Histamine (H3) Binding Assay; settings: 10^-6 M; Rat forebrain membranes; [3H]N^a-methylhistamine 0.2 nM; read-out: Receptor Binding Activity Percent Inhibition Average (N = 2)
T5 construct: Rat forebrain membranes; from tissue; host or cells: rat forebrain membranes

[6] = test system: Serotonin (5HT1); test: Serotonin (5HT1) Binding Assay; settings: 10^-6 M; Rat cortical membranes; [3H]Hydroxytryptamine binoxalate 3.0 nM
[7] = molecular target: T6, Serotonin (5HT1A) (Bos taurus, UniProt F6Q2H9); test: Serotonin (5HT1A) Binding Assay; set-up: species or system Bovine; settings: 10^-6 M; Bovine hippocampal membranes; [3H]-8-OH-DPAT 1.0 nM; read-out: Receptor Binding Activity Percent Inhibition Average (N = 2)
T6 construct: Bovine hippocampal membranes; from tissue; host or cells: bovine hippocampal membranes
T6 sequence (F6Q2H9 1-422): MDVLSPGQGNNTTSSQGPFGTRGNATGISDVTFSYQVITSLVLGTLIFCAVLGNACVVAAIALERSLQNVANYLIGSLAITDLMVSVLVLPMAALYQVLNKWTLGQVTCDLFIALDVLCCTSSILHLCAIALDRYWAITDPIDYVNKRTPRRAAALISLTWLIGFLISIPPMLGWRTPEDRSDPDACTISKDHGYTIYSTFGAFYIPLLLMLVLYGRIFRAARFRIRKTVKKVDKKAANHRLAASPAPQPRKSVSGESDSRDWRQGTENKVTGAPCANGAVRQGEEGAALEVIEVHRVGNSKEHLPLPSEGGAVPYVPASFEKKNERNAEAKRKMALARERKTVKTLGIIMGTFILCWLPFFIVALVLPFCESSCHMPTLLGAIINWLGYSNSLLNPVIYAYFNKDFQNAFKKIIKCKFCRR

[8] = test system: Serotonin (Non-Selective); test: Serotonin (Non-Selective) Binding Assay; settings: 10^-6 M; Rat cortical membranes; [3H]Lysergic acid diethylamide 5.0 nM
[9] = molecular target: T7, Opiate (Delta) (Rattus norvegicus, UniProt P33533); test: Opiate (Delta) Binding Assay; settings: read-out: Receptor Binding Activity Percent Inhibition Average (N = 2)
T7 construct: Rat forebrain membranes; from tissue; host or cells: rat forebrain membranes

[10] = molecular target: T8, Benzodiazepine (Peripheral) (Rattus norvegicus, UniProt P16257); test: Benzodiazepine (Peripheral) Binding Assay; settings: read-out: Receptor Binding Activity Percent Inhibition Average (N = 2)
T8 construct: Rat kidney membranes; from tissue; host or cells: rat kidney membranes

[11] = molecular target: Glycine (Strychnine Insensitive) (Rattus norvegicus, UniProt P35439); test: biochemical; format: binding; settings: read-out: Receptor Binding Activity Percent Inhibition Average (N = 2)
[12] = molecular target: T9, Human recombinant M2 clone (Homo sapiens, UniProt P08172); test: Muscarinic--M2 Clone Binding Assay; settings: read-out: Receptor Binding Activity Percent Inhibition Average (N = 2)
T9 construct: expressed in transfected cells
T9 sequence (P08172 1-466): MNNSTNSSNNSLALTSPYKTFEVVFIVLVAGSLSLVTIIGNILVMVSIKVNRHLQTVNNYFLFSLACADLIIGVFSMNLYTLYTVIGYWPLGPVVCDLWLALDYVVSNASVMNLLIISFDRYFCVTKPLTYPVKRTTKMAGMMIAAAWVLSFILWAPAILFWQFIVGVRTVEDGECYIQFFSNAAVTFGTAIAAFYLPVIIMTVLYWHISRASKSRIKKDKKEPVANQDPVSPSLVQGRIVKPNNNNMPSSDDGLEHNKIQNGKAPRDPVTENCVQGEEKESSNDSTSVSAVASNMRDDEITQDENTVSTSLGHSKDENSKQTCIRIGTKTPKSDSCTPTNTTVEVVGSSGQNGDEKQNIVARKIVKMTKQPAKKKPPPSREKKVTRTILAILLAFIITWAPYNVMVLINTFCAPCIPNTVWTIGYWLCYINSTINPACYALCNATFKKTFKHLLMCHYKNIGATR

[13] = molecular target: T10, recombinant Rat 5HT7 Clone (Rattus norvegicus, UniProt P32305); test: Serotonin--5HT7 Clone Binding Assay; settings: 10^-6 M, [3H]LSD 2.0 nM, read-out: Receptor Binding Activity Percent Inhibition Average (N = 2)
T10 construct: expressed in transfected cells

[14] = molecular target: T11, Inositol Triphosphate (IP3) (Rattus norvegicus, UniProt P29994); test: Inositol Triphosphate (IP3) Binding Assay; settings: 10^-6 M; Rat cerebellar membranes; [3H]IP3 4.0 nM; read-out: Receptor Binding Activity Percent Inhibition Average (N = 2)
T11 construct: Rat cerebellar membranes; from tissue; host or cells: rat cerebellar membranes
Protocol: Tissue cultures were prepared using standard laboratory practice for the following tissues: human recombinant M1 clone, human recombinant M2 clone, guinea pig striatal membranes, rat cortical membranes, rat striatal membranes, rat forebrain membranes, bovine hippocampal membranes, guinea pig cerebellar membranes, rat kidney membranes, recombinant rat 5HT7 clone, and rat cerebellar membranes.
Inositol Triphosphate (IP3) Binding Assay
Rat cerebellar membranes
Radioligand: [^3 H]IP3 (10-30 Ci/mmol)
Final ligand concentration - [4.0 nM]
D-myo-inositol 1,4,5-triphosphate
Reactions are carried out in 50 mM TRIS-HCl (pH 8.3)
1 mM EDTA at 0° C. for 10 minutes. The reaction is
rapid vacuum filtration onto glass fiber filters.
onto the filters is determined and compared to control
order to ascertain any interactions of test compound with
inositol triphospate binding site.

[15] = test system: Glutamic Acid Decarboxylase (GAD); test: Glutamic Acid Decarboxylase (GAD) Enzyme Assay; format: biochemical; settings: 10^-8 M; Rat corpus striatal membranes; [14C]L-Glutamic acid
Protocol: Radioimmunoassay studies were conducted with rat corpus striatal membranes using the following method.
Glutamic Acid Decarboxylase (GAD) Enzyme Assay
Rat corpus striatal membranes
Substrate: [^14 C]L-Glutamic acid (30-80 Ci/mmol)
Reactions are incubated in phosphate/mercapoethanol buffer
6.9) for 30 minutes at 37° C. The reaction is
stopped by the addition
of trichloroacetic acid and placement on ice. Radioactive
trapped in phenylethylamine/methanol and quantitated using
scintillation […] in order to ascertain any
of test compounds with the glutamic acid decarboxylase

[16] = in the human; in vivo; cited from earlier work
[17] = test system: glutamatergic transmission; settings: application to CNS sites in vitro; cited from earlier work

T10 sequence (P32305 whole entry): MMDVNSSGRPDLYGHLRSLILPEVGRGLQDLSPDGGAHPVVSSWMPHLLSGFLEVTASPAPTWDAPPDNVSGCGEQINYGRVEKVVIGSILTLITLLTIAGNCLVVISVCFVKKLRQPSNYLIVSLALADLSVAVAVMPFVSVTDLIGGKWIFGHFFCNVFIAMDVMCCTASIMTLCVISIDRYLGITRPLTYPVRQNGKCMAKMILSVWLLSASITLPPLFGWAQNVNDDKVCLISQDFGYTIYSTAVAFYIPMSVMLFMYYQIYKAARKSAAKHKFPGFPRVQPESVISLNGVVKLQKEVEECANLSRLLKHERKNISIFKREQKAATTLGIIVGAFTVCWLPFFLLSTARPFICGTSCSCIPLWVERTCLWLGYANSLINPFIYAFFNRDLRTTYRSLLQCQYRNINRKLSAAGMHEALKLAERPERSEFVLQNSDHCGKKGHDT
T11 sequence (P29994 whole entry): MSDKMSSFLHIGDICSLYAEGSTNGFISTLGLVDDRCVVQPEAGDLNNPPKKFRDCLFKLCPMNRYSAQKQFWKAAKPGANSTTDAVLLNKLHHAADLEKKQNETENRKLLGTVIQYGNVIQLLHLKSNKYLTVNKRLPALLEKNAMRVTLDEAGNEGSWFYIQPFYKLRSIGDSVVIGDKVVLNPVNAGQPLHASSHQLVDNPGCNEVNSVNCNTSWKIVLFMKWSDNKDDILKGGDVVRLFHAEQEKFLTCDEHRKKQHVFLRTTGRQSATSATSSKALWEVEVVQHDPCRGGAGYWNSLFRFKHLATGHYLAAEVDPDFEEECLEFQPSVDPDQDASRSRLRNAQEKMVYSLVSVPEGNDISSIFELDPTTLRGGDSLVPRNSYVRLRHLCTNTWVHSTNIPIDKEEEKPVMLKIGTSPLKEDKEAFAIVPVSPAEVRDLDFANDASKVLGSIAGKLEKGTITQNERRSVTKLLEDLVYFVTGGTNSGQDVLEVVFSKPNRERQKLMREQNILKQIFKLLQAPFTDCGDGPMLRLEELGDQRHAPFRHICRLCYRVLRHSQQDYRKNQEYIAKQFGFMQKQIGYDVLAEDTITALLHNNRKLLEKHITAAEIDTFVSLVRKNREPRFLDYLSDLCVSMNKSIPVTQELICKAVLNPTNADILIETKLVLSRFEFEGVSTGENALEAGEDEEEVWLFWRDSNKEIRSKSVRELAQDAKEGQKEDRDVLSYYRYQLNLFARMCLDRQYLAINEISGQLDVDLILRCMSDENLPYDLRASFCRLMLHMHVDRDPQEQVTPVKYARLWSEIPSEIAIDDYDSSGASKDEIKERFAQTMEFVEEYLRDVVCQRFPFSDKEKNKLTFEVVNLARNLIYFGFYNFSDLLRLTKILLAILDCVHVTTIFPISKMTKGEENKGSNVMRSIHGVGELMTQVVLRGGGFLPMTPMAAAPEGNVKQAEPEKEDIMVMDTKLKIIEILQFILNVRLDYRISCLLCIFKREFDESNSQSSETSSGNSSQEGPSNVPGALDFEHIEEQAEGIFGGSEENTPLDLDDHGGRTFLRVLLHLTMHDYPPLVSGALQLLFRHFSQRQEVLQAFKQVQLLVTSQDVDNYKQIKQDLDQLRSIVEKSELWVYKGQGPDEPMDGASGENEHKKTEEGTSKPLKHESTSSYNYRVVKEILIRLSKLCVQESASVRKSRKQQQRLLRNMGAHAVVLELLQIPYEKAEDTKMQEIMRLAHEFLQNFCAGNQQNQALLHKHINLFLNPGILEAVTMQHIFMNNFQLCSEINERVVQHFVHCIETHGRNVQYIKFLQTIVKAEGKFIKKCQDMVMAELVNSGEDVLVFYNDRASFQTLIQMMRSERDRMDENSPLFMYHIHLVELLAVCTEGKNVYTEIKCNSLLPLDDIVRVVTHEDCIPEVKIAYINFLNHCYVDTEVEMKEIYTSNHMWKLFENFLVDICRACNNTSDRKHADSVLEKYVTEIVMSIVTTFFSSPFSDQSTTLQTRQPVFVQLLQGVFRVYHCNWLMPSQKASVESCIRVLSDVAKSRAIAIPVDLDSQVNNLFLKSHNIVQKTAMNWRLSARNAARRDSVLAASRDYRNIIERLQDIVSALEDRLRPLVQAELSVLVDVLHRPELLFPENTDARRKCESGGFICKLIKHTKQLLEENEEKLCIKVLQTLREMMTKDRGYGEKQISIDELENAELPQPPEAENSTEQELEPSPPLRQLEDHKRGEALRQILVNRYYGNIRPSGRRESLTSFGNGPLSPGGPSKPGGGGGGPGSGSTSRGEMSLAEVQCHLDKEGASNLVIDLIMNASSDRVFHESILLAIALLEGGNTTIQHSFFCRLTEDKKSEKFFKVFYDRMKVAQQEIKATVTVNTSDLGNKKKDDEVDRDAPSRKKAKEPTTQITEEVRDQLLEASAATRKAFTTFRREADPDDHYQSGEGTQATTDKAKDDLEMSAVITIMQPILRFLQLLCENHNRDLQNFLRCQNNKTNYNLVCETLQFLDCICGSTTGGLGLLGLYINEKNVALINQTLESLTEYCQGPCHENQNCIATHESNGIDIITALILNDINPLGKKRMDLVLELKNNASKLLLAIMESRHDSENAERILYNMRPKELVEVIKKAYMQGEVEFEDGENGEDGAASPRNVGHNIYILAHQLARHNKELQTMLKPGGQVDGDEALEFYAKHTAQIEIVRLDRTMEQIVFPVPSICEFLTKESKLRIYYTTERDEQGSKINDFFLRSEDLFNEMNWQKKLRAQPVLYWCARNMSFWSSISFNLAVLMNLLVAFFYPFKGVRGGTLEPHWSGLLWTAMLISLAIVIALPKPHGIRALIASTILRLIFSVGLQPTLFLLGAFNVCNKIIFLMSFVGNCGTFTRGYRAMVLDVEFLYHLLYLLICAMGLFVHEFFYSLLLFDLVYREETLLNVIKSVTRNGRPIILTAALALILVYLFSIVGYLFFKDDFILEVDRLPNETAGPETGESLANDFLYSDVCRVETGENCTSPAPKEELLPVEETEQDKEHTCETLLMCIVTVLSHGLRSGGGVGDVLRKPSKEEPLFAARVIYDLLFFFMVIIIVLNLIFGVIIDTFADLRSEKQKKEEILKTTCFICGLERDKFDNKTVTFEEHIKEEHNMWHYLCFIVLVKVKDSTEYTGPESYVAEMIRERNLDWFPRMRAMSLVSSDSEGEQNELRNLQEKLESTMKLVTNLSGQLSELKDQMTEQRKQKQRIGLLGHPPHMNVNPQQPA
T5 sequence (Q9QYN8 whole entry): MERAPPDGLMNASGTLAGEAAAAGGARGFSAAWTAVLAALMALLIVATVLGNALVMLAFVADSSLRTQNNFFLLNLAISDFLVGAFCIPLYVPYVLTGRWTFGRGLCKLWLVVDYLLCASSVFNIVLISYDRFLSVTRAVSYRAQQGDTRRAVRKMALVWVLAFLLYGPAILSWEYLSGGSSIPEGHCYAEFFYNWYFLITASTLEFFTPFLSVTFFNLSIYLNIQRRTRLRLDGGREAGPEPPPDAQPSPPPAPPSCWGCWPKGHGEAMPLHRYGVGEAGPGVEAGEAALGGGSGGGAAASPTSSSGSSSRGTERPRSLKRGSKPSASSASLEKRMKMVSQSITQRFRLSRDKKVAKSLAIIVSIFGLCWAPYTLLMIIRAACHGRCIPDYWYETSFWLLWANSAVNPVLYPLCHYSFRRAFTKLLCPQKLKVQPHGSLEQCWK
T4 sequence (P47747 whole entry): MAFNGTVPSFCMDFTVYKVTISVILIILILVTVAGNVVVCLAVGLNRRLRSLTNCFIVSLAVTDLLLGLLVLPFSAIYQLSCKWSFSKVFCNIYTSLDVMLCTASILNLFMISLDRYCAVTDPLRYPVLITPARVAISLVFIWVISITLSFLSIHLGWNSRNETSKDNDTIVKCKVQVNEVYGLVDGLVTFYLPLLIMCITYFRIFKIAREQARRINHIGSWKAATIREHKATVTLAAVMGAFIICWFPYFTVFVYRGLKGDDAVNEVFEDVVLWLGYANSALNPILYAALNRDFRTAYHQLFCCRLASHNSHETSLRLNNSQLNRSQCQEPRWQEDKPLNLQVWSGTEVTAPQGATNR
T3 sequence (P18901 whole entry): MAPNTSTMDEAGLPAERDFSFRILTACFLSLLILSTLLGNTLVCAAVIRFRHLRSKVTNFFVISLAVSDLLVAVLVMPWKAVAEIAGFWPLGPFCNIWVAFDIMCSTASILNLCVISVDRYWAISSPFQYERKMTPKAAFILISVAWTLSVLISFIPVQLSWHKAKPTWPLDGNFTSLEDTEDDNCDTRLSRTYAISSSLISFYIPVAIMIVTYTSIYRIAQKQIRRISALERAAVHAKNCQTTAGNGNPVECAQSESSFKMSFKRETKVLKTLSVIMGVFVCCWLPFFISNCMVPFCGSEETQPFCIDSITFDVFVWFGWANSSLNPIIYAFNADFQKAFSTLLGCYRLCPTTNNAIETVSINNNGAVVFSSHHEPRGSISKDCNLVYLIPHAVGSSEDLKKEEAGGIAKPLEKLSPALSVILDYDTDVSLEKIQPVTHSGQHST

## CN1CCCC1c1cccnc1 (centres unmarked) [Nicotine, reference compound]
[1]
  Receptor Binding Activity Percent Inhibition Average (N = 2): 9.2%
[2]
  inhibition at 1 µM: 12.1%
[3]
  Receptor Binding Activity Percent Inhibition Average (N = 2): 2.6%
[4]
  inhibition at 1 µM: 45.9%
[5]
  inhibition at 1 µM: 13.5%
[6]
  Receptor Binding Activity Percent Inhibition Average (N = 2): -1.4%
[7]
  inhibition at 1 µM: 3.3%
[8]
  Receptor Binding Activity Percent Inhibition Average (N = 2): 6.3%
[9]
  inhibition at 1 µM: 10.1%
[10]
  inhibition at 1 µM: 3.1%
[11]
  inhibition at 1 µM: 1.5%
[12]
  inhibition at 1 µM: 4.4%
[13]
  inhibition at 1 µM: 8%
[14]
  inhibition at 1 µM: 3.2%
[15]
  Percent Inhibition: 40%
[16]
  half-life: one to two
[17]
  amplitude of the evoked currents: more than doubled
